We go through one molecule from ChEMBL document CHEMBL5344471, “64Cu-Labeled Boron-Containing Cyclic RGD Peptides for BNCT and PET Imaging” (ACS Med Chem Lett, 2024).

Calls of active or inactive are those of the source. The rule behind the calls is not given here.

Series [1] in a line: Biodistribution in Balb/c mouse xenografted with human U-87 MG cells by measuring ratio of boron concentration in tumor to muscle at 0.04 mmol,iv administrated for 1 hr by ICP-MS analysis. The class given is ADME, organism-based. Particulars: in vivo. For orientation: In xenograft studies the graft and the host belong to different species.
Series [2] is described as follows: Biodistribution in Balb/c mouse xenografted with human U-87 MG cells by measuring ratio of boron concentration in tumor to brain at 0.04 mmol,iv administrated for 1 hr by ICP-MS analysis. It counts as ADME, organism-based. Particulars: in vivo.
A short description of series [3]: Biodistribution in Balb/c mouse xenografted with human U-87 MG cells by measuring ratio of boron concentration in tumor to liver at 0.04 mmol,iv administrated for 1 hr by ICP-MS analysis. It counts as ADME, organism-based. Particulars: in vivo.
For a further series, the system named is U-87 MG. Put plainly: Cytotoxicity against human U-87 MG cells at 10 to 400 uM incubated for 24 hrs by CCK-8 assay. The class given is functional, cell-based. The note with it: U-87MG ATCC, dose 10-400 µM.
Series [4] can be described thus: Biodistribution in Balb/c mouse xenografted with human U-87 MG cells by measuring ratio of boron concentration in tumor to kidney at 0.04 mmol,iv administrated for 1 hr by ICP-MS analysis. Particulars: in vivo. The class given is ADME, organism-based.

Turning to `N=C(N)NCCC[C@@H]1NC(=O)[C@H](CCCCN)NC(=O)[C@@H](Cc2ccc(B(O)O)cc2)NC(=O)[C@H](CC(=O)O)NC(=O)CNC1=O`, the Ratio in series [1] was 2.41; in series [2] it was 13.4; in series [3], 2.5; in series [4], 0.43. In addition, the outcome with U-87 MG was inactive.
